In patent US20010041688A1, “Methods and compositions for the regulation of vasoconstriction” (priority 2000, published 2001):
Blank lines part the entries; values can stand above or below the compound they belong to.

Assays:
basilar artery [1] = assay: Contractile tension in isolated basilar artery (isometric myograph); details: isolated rat basilar artery; for Contractile response Emax: % of contraction evoked by 100 mM KCl; for EC50: read-out: Contractile response EC50
Description: (§1) Preparations were equilibrated unstretched for 30 min.

middle cerebral artery = assay: Contractile tension in isolated middle cerebral artery (isometric myograph); details: isolated rat middle cerebral artery; for Contractile response Emax: % of contraction evoked by 100 mM KCl; for EC50: read-out: Contractile response EC50
Description: as §1

coronary artery = assay: Contractile tension in isolated coronary artery (isometric myograph); details: isolated rat coronary artery; for Contractile response Emax: % of contraction evoked by 100 mM KCl
Description: as §1

carotid artery = assay: Contractile tension in isolated carotid artery (isometric myograph); details: isolated rat carotid artery; for Contractile response Emax: % of contraction evoked by 100 mM KCl
Description: as §1

femoral artery = assay: Contractile tension in isolated femoral artery (isometric myograph); details: isolated rat femoral artery; for Contractile response Emax: % of contraction evoked by 100 mM KCl
Description: as §1

[2] = system: S1P-induced vasoconstriction of basilar artery; assay: Modulation of S1P-induced vasoconstriction in isolated basilar artery; design: species or system rat
basilar artery [3] = system: basilar artery; design: species or system rat
cerebral blood flow = assay: Relative cerebral blood flow by laser Doppler flowmetry in anesthetized rats; assay type: in vivo, rat; details: for Relative cerebral blood flow (rCBF) in cerebral cortex: 0.3 mg/kg infused into left internal carotid artery, anesthetized rats
Description: Pentobarbital-anaesthetized mechanically-ventilated male rats (250-300 g, Charles River) were maintained at 37.0±0.5° C. A femoral vein and artery were cannulated to monitor mean arterial blood pressure, heart rate and arterial blood gases. The left common carotid artery was ligated. The animals were placed in a stereotaxic frame and relative cerebral blood flow (rCBF) was measured by a laser Doppler flow probe (Model PF2B, Perimed) affixed to the thinned skull above the vascular territory of the left middle cerebral artery (2 mm posterior to Bregma, 3 mm lateral to midline). Changes in rCBF were expressed as a percentage of baseline and recorded for 20 minutes beginning at the onset of drug or vehicle infusion. S1P, DHS1P or vehicle were infused (100 μl/2 minutes) into the left internal carotid artery. Some rats were pretreated with suramin via infusion (200 μl/2 min) into the left femoral vein.

mouse basilar arteries = assay: Constriction of mouse basilar artery; details: data not shown
rabbit basilar arteries = assay: Constriction of rabbit basilar artery; details: data not shown
[4] = read-out: Contractile response EC50

Compound: [Cl-].[K+] [KCl, potassium chloride]
Contractile response to KCl (basilar artery [1]; 100 mM KCl): 1.70 mN/mm
Contractile response to KCl (middle cerebral artery; 100 mM KCl): 1.05 mN/mm
Contractile response to KCl (coronary artery; 100 mM KCl): 1.87 mN/mm
Contractile response to KCl (carotid artery; 100 mM KCl): 2.28 mN/mm
Contractile response to KCl (femoral artery; 100 mM KCl): 4.52 mN/mm

Compound: Pertussis toxin
Effect of toxin incubation on S1P-induced vasoconstriction (in words) ([2]; basilar artery segments treated in vitro with toxin): did not modify
Response to 5-HT1 receptor agonist 5-carboxamidotryptamine after incubation with toxin (basilar artery [3]; without toxin 92±10, n=4, p<0.05): 30±2 % of KCl-evoked contraction

Compound: CCCCCCCCCCCCC/C=C/[C@@H](O)[C@@H](N)CO [sphingosine]
Contractile response to S1P after preincubation with sphingosine together with DMS ([2]; sphingosine 10 μM plus DMS 20 μM, added 30 min prior to S1P): fully blocked

Compound: Cc1ccc(C(=O)Nc2ccc(S(=O)(=O)O)c3cc(S(=O)(=O)O)cc(S(=O)(=O)O)c23)cc1NC(=O)c1cccc(NC(=O)Nc2cccc(C(=O)Nc3cc(C(=O)Nc4ccc(S(=O)(=O)O)c5cc(S(=O)(=O)O)cc(S(=O)(=O)O)c45)ccc3C)c2)c1 [suramin]
Contractile response to S1P after preincubation with suramin ([2]; 10 μM suramin, added 30 min prior to S1P): markedly depressed
Contractile response to 5-HT after preincubation with suramin (basilar artery [3]; data not shown): did not modify
S1P's effect on rCBF after suramin pretreatment (cerebral blood flow; suramin 16 mg/kg via femoral vein, S1P 0.3 mg/kg): abolished

Compound: CCCCCCCCCCCCCCC[C@@H](O)[C@@H](N)COP(=O)(O)O [DHS1P, dihydrosphingosine-1-phosphate]
Contraction (in words) (basilar artery [1]): less effectively than S1P
Contractile response Emax (basilar artery [1]): 58.8 % KCl
EC50 (basilar artery [1]): 240 nM
Contractile response Emax (coronary artery): 15.9 % KCl
Contractile response Emax (carotid artery): 5.9 % KCl
Contractile response Emax (femoral artery): 6.3 % KCl
Relative cerebral blood flow (rCBF) in cerebral cortex (cerebral blood flow): reduced rCBF, although less potently

EC50 (basilar artery [1]): 280 nM
EC50 (middle cerebral artery): 350 nM
Compound: CCCCCCCCCCCCC/C=C/[C@@H](O)[C@@H](N)COP(=O)(O)O [S1P, sphingosine-1-phosphate]
Contraction (in words) (basilar artery [1]): robust contraction
Contractile response Emax (basilar artery [1]): 96.7 % KCl
Contraction (in words) (middle cerebral artery): robust contraction
Contractile response Emax (middle cerebral artery): 77.6 % KCl
Contraction (in words) (coronary artery): weakly constricted
Contractile response Emax (coronary artery): 16.9 % KCl
Contraction (in words) (carotid artery): unresponsive
Contractile response Emax (carotid artery): 5.2 % KCl
Contraction (in words) (femoral artery): unresponsive
Contractile response Emax (femoral artery): 3.6 % KCl
Relative cerebral blood flow (rCBF) in cerebral cortex (cerebral blood flow): decreased
Constriction (in words) (mouse basilar arteries): able to constrict
Constriction (in words) (rabbit basilar arteries): able to constrict

EC50 (basilar artery [1]): 63 nM
EC50 (middle cerebral artery): 44 nM
EC50 (coronary artery; [4]): 242 nM
EC50 (carotid artery; [4]): 3180 nM
EC50 (femoral artery; [4]): 122 nM
Compound: NCCc1c[nH]c2ccc(O)cc12 [5-HT, 5-hydroxytryptamine]
Contractile response Emax (basilar artery [1]): 99.5 % KCl
Contractile response Emax (middle cerebral artery): 73.2 % KCl
Contractile response Emax (coronary artery): 119.3 % KCl
Contractile response Emax (carotid artery): 101.1 % KCl
Contractile response Emax (femoral artery): 133.2 % KCl
